Consider five substances from patent US20030068615A1, “Polypeptides that bind HIV gp120 and related nucleic acids, antibodies, compositions, and methods of use” (priority 1999, published 2003).

Data set [1] concerns HIV-1 virus strains (e.g. YU2). To be noted: cited from earlier work; for percentage compared to wild-type CCR5, 89.6 / percentage compared to wild-type CCR5, ADA / percentage compared to wild-type CCR5, DH123 / percentage compared to wild-type CCR5, JF-RL / percentage compared to wild-type CCR5, YU2: CCR5 alanine mutant, work of others; for percentage compared to wild-type CCR5, 89.6: HIV-1 strain 89.6; for percentage compared to wild-type CCR5, ADA: HIV-1 strain ADA; for percentage compared to wild-type CCR5, DH123: HIV-1 strain DH123; for percentage compared to wild-type CCR5, JF-RL: HIV-1 strain JF-RL; for percentage compared to wild-type CCR5, YU2: HIV-1 strain YU2.

Another data set addresses HIV-1LAI envelope gp120 (Human immunodeficiency virus type 1 group M subtype B, UniProt P03377). In kind it is binding.

With “MDYQVSSPIYAINYYTSE: CCR5 (1-18) variant D11A”, in data set [1], the “percentage compared to wild-type CCR5, 89.6” value (shortened to “percentage … 89.6”) is recorded as 6%; the “percentage compared to wild-type CCR5, ADA” value (“percentage … ADA” below) is 27%; the “percentage compared to wild-type CCR5, DH123” value (from here on “percentage … DH123”) is listed as 3%; the “percentage compared to wild-type CCR5, JF-RL” value (“percentage … JF-RL” for short) is listed as 22%. Besides, in data set [1], the “percentage compared to wild-type CCR5, YU2” value (“percentage … YU2” for short) is 2%.

With “MDYQVSSPIYDINAYTSE: CCR5 (1-18) variant Y14A”, in data set [1], the “percentage … 89.6” value is reported as 6%; the “percentage … ADA” value was 47%; the “percentage … DH123” value is on record as 0%; the “percentage … JF-RL” value is given as 25%. Moreover, the “percentage … YU2” value in data set [1] is recorded as 12%.

For “MDYQVSSPIYDINYATSE: CCR5 (1-18) variant Y15A”, in data set [1], the “percentage … 89.6” value is 1%; the “percentage … ADA” value was 3%; the “percentage … DH123” value was 0%; the “percentage … JF-RL” value is given as 3%. Further, in data set [1], the “percentage … YU2” value is given as 30%.

In the case of “MDYQVSSPIYDINYYTSA: CCR5 (1-18) variant E18A”, in data set [1], the “percentage … 89.6” value is recorded as 3%; the “percentage … ADA” value is 12%; the “percentage … DH123” value is on record as 10%; the “percentage … JF-RL” value is recorded as 12%. In addition, the “percentage … YU2” value in data set [1] is on record as 45%.

In the case of “Y3A: human CCR5 chemokine receptor with tyrosine 3 substituted by alanine, studied by others (cited 79% value)”, the “percentage of binding of mutant polypeptide compared to wild-type polypeptide, gp120” value with HIV-1LAI envelope gp120 (CCR5 alanine mutant peptide, radiolabeled HIV-1LAI gp120) is 51.4%. Besides, the “ability to bind HIV-1LAI gp120 envelope protein in comparison to an equivalent wild-type peptide” value with HIV-1LAI envelope gp120 (CCR5 mutant polypeptide) is recorded as 51.4%. In addition, in data set [1], the “percentage … ADA” value was 79%; the “percentage … DH123” value is given as 42%; the “percentage … JF-RL” value was 82%. Also, in data set [1] (mutated CCR5, data extracted from the work of others), the “affinity relative to a non-mutated CCR5 chemokine receptor” value is listed as 79%.
